{
  "source": "patent US20120252773A1",
  "about": "“Method and composition for inhibiting cell proliferation and angiogenesis” (priority 2005, published 2012)",
  "key": {"[1]": {"system": "Chick Chorioallantoic Membrane (CAM)", "assay": "Chick chorioallantoic membrane (CAM) assay, blood vessel density", "assay_type": "in vivo", "conditions": "12.5 μg per embryo in 0.5% methylcellulose, vs vehicle control", "procedure": "A CAM assay was conducted as previously described (K. Amin, J. Li, and W-R. Chao, Cancer Biol. Ther. 2: 173-178, (2003). Briefly, fresh fertile eggs were incubated in a standard egg incubator at 37° C. for 3 days. On Day 3, eggs were cracked under sterile conditions and embryos were placed into 20×100 mm sterile plastic Petri dishes and cultivated at 37° C. in an embryo incubator with a water reservoir on the bottom shelf. Air was continuously bubbled into the water reservoir using a small pump so that the humidity in the incubator was kept constant. On Day 6, a sterile silicon “o” ring was placed on each CAM, and test compound (2) dissolved in 0.5% methylcellulose was delivered into each “o” ring under sterile conditions. Embryos were returned to the incubator. Control embryos received 10 μL of vehicle alone, while 12.5 μg of (2) was delivered to test embryos. On Day 8, embryos were removed from the incubator and kept at room temperature while blood vessel density was determined under each “o” ring using an image capturing system at a magnification of 160×."}, "[2]": {"system": "Human Dermal Microvascular Endothelial Cells (HDMVEC)", "assay": "Growth inhibition of HDMVEC cells, MTT, 7 days", "assay_type": "cell-based", "conditions": "Endothelial cell", "procedure": "To measure the inhibitory activity of (2) on growth of HDMVEC cells (Clonetics, San Diego, Calif.), 2,000 cells were seeded in each well of a 96-well plate in […] of EGM medium (Clonetics) supplemented with 5% fetal bovine serum (Sigma). The plate was incubated at 37° C. in a tissue culture incubator for 24 h, and then various concentrations of (2) dissolved in EGM were added to each well in 5-10 μl aliquots. Four wells were used for each concentration. Medium in each well was renewed with fresh test solution added every other day. After 7 days of culture, the viable cells were measured using reagents from an MTT kit (Promega Corporation, Madison, Wis.), using instructions provided by the supplier. The number of viable cells in treated wells relative to those in control wells gave the percentage of inhibition.\nThe procedures of Example 3 were carried out to evaluate the inhibitory effect of various compounds of the invention on the growth of HDMVEC cells (Clonetics, San Diego, Calif.)."}},
  "note": "Where two headings read alike, the source gives them in different places.",
  "data": [
    {"smiles": "C[C@@H]1Cc2cc(O)ccc2C2CCC3(C)/C(=C/COCCN(C)C)CCC3C21", "note": "(stereo partly drawn) [Compound (2), (E)-3-Hydroxy-7α-methyl-21-[(2-dimethylamino)ethoxy]-19-norpregna-1,3,5(10),17(20)-tetraene]", "values": [
      {"measurement": "blood vessel density", "setting": "[1]", "value": "drastically decreased the blood vessel density"},
      {"measurement": "IC50", "setting": "[2]; 168 h, 7 days of culture, MTT, read-out: IC50 value, growth of HDMVEC cells", "value": "~80", "unit": "nM"},
      {"measurement": "IC50", "setting": "[2]; HDMVEC growth, procedures of Example 3, read-out: Inhibitory Effect (IC50 Value)", "value": 80, "unit": "nM"}
    ]}
  ]
}
